Experiments:
[1] = test system: HeLa cells; experiment: Trypan Blue exclusion assay; assay type: cell-based, human; conditions: 40 μM
Procedure: HeLa cells were seeded in 6 well plates at 100,000 cells/well and allowed to proliferate for 24 h. Cell cultures were treated as stated, media containing detached/dead cells were removed and retained, adherent cells washed with PBS and detached with Trypsin. Adherent and detached cells for each sample were combined, concentrated via centrifugation and re-suspended in 0.5 ml PBS containing 0.04% Trypan Blue solution. Trypan Blue-negative and Trypan Blue-positive cells were counted by haemocytometer. A minimum of 200 cells were counted for each sample.

[2] = test system: hSAEC1-KT human epithelial cells; experiment: cell viability with or without Chk1 inhibitor CHIR-124, hSAEC1-KT; assay type: cell-based; conditions: normal hSAEC1-KT cells, plus CHIR-124 500 nM, 48 h, any concentration of 1
Procedure: (§1) With this in mind, and considering the strong Chk1 activation in response to 1, HeLa cervical cancer cells, which are […][44], were exposed to a combination of 1 plus the Chk1 inhibitor CHIR-124[45] and the impact of co-treatment upon cell viability determined. A non-cytotoxic dose of 500 nM CHIR-124 was used and results were compared to single-agent treatment. […] Minimal enhancement of the anti-proliferative effect of 2 by CHIR-124 was observed (Fig. S15b), in agreement with 2 operating via a Chk1-independent mechanism.
(§2) Figure 5 Concurrent treatment of [Ru(dppz)2(PIP)]^2+ plus the Chk1 inhibitor CHIR-124 potentiates synergistic apoptosis in cancer cells. (a) Viability of HeLa (cervical cancer) or hSAEC1-KT (normal epithelial) cells after incubation with 1 in the absence or presence of Chk1 inhibitor CHIR-124 (500 nM) for 48 h constant exposure. […] (c) Quantification of apoptotic cells for experimental conditions as shown in (b). […] (f) Quantification of γH2AX foci from cells treated as in (e). […] Minimum of 150 cells counted per experiment. […]
(§3) Cells were seeded in 96 well plates at 20,000 cells/well, allowed to proliferate for 24 h before treatment as described in the main text. […] The absorbance at 540 nm was quantified by plate reader (reference wavelength 650 nm). The metabolic activity of the cell population was determined as a percentage of a negative (solvent) control.

[3] = test system: HeLa cervical cancer cells; experiment: cell viability with or without Chk1 inhibitor CHIR-124, HeLa; assay type: cell-based, human; conditions: plus CHIR-124 500 nM, 48 h constant exposure
Procedure: as §1, §2, §3

[4] = test system: HeLa cells; experiment: quantification of apoptotic morphology (pyknosis/karyorrhexis); assay type: cell-based, human; conditions: single-agent treatment, 48 h (1 40 μM; CHIR-124 500 nM)
Procedure: as §1
Figure 5 Concurrent treatment of [Ru(dppz)2(PIP)]^2+ plus the Chk1 inhibitor CHIR-124 potentiates synergistic apoptosis in cancer cells. (a) Viability of HeLa (cervical cancer) or hSAEC1-KT (normal epithelial) cells after incubation with 1 in the absence or presence of Chk1 inhibitor CHIR-124 (500 nM) for 48 h constant exposure. (b) Morphological evidence for apoptosis (pyknosis/karyorrhexis, arrows) in HeLa cells treated with 40 μM 1 plus CHIR-124 for 48 h. Scale bars = 20 μm. (c) Quantification of apoptotic cells for experimental conditions as shown in (b). Equivalent results for 2 (40 μM, 48 h) included. Data mean of two independent experiments +/− SD. […] (f) Quantification of γH2AX foci from cells treated as in (e). […] Minimum of 150 cells counted per experiment. […]

[5] = test system: HeLa cells; experiment: cell-cycle analysis by PI flow cytometry; assay type: cell-based, human; conditions: 40 μM, 24 h
Procedure: Figure 4 [Ru(dppz)2(PIP)]^2+ induces Chk1 checkpoint kinase activation and G1-S cell-cycle arrest. […] See SI for densitometry. (c) Cell-cycle distributions of HeLa cells incubated with DMSO (0.2%), 1 or 2 at the stated concentrations and time. DNA content was quantified using propidium iodide (PI) and analysed by flow cytometry. […] Data mean of three independent experiments +/− SD. […] They are copied as bare numbers, left to right. / The gate numbers in panel c are very small, so 3, 5, 6, 8 and 9 cannot be told apart with certainty. All the values below are best readings. / DMSO: 0.86, 57.4, 22.5, 16.8 uncertain / 1 (40 μM, 3 h): 0.46, 72.7, 13.5, 8.77 uncertain / 1 (40 μM, 8 h): 1.69, 73.2, 15.3, 3.6 uncertain / 1 (40 μM, 24 h): 1.2, 72.9, 15.8, 6.47 uncertain. […] 32.4 is partly overlapped by the peak line.
Cells were washed with PBS and detached using Trypsin. After centrifugation at 1000 rpm for 5 min, cells were fixed in cold 70% ethanol for 30 mins, centrifuged and re-suspended in PBS. Samples were stained using 10 μg/ml propidium iodide (PI) and 200 μg/ml RNAase A for 30 mins before FACS analysis using a Biosciences LSRII Flow Cytometer. A minimum of 10,000 cells were counted for each sample and data were processed using FloJo software. […]

Row | Structure (SMILES) | HeLa cell growth (viable cell numbers) ([1]; 24–72 h treatment) | cytotoxicity ([1]; HeLa, up to 72 h, % total cells, read-out: non-viable (Trypan Blue positive) populations) [%] | impact on cell health on combination with CHIR-124 [2] | cell viability on simultaneous treatment with CHIR-124 compared to either agent alone [3] | morphological evidence of apoptosis (pyknosis/karyorrhexis) [4] [%] | change in cell-cycle distribution compared to controls [5]
1 | [Ru+2].c1ccc(-c2nc3c4cccnc4c4ncccc4c3[nH]2)cc1.c1ccc2nc3c4cccnc4c4ncccc4c3nc2c1.c1ccc2nc3c4cccnc4c4ncccc4c3nc2c1 [Complex 1, [Ru(dppz)2(PIP)]^2+] | completely halts HeLa cell growth | < 20 | no substantial impact on cell health | significant decrease in cell viability | < 5 | –
2 | Oc1ccc(-c2nc3c4cccnc4c4ncccc4c3[nH]2)cc1.[Ru+2].c1ccc2nc3c4cccnc4c4ncccc4c3nc2c1.c1ccc2nc3c4cccnc4c4ncccc4c3nc2c1 [Complex 2, [Ru(dppz)2(p-HPIP)]^2+] | – | – | – | – | – | no change in cell-cycle distribution

— PMC4997316, “A ruthenium polypyridyl intercalator stalls DNA replication forks, radiosensitizes human cancer cells and is enhanced by Chk1 inhibition” (Scientific Reports, 2016)
